The supplement of paper PMC11208160

Test: recombinant barcode read abundance after kanamycin selection (control-corrected) (log10(CPM+1)); higher = more efficient recombination; sequences stand for … in AGTGCAGAGAAAATCGGCCAGTTTTCTCTGCCTGCAGTCCGCATGCCGT…AGATTTATGCAGCGGACTGCCTTTCTCCCAAAGTGATAAACCGGACAGTATCATGGACCGGTTTTCCCGGTAATCCGTATTTGCAAGGTTGGTTTCACT; site = the 11-nt target
Outline: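 Recombination efficiency in this pooled E. coli screen uses counts per million of barcodes at recombinant junctions, averaged and corrected against the control. The reported form is log10(CPM+1). Two replicates were plated on chloramphenicol/ampicillin LB agar as control and two on chloramphenicol/ampicillin/kanamycin with 0.1 mM IPTG.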
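Note: IS621 recombinase and bridge RNA in Escherichia coli cells.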

| Sequence | recombinant barcode read abundance (log10) |
| --- | --- |
| TACCAGACTTGGGTTCTAACCTGTTGCCT (site TACCGGACTAG) | 0.191 |
| TGCTGTTCTTGGGTTCTAACCTGTTGCCT (site TGCTGTCCTAG) | 0.212 |
| GTAGCCACTTGGGTTCTAACCTGTTGCCT (site GTAGCCACTAG) | 2.37 |
| ATACCATCTTGGGTTCTAACCTGTTGCCT (site ATACCATCTAG) | 0.031 |
| TAGCGTACTTGGGTTCTAACCTGTTGCGT (site TAGCGTACTAC) | 0.805 |
| TAACGACCTTGGGTTCTAACCTGTTGCCT (site CAACGACCTAG) | 0.055 |
| CCACCGTCTTGGGTTCTAACCTGTTGCCT (site CCACCGTCTAG) | 0.156 |
| TTACGAGCTTGGGTTCTAACCTGTTGCCT (site TTACGAGCTAG) | 1.08 |
| CCAGAAGCTTGGGTTCTAACCTGTTGCCT (site CCAGTAGCTAG) | 0.0645 |
| CTCTGGACTTGGGTTCTAACCTGTTGCTT (site CTCTTGACTAA) | 0.0289 |
| TATTTGCCTTGGGTTCTAACCTGTTGCTG (site GCACCTGCTAG) | 0.183 |
| AGCTTTGCTTGGGTTCTAACCTGTTGCCT (site AGCTTTGCTAG) | 0.0693 |
| TAGTACCCTTGGGTTCTAACCTGTTGCAT (site TAGTACCCTTT) | 0.227 |
| TGGCTAGCTTGGGTTCTAACCTGTTGCAC (site TGGCTAGCTGT) | 1.77 |
| AAAAGCCCTTGGGTTCTAACCTGTTGCCT (site AGAAGCCCTAG) | 0.0771 |
| ATAAAGCCTTGGGTTCTAACCTGTTGCCT (site ATAAAGCCTAG) | 2.05 |
| GAGTTCACTTGGGTTCTAACCTGTTGCAG (site GAGTTCACTCT) | 1.79 |
| GTCTCTACTTGGGTTCTAACCTGTTGCCT (site GCCTCTTCTAG) | 0.0271 |
| GCAGGGTCTTGGGTTCTAACCTGTTGCCT (site GCAGGGTCTAG) | 1.45 |
| ACAGACGCTTGGGTTCTAACCTGTTGCCT (site ACAGCCGCTAG) | 0.151 |
| ACTTTGTCTTGGGTTCTAACCTGTTGCCT (site ACTTTGTCTAG) | 0.596 |
| CTCATATCTTGGGTTCTAACCTGTTGCCA (site CTAATATCTTG) | 0.0804 |

| Sequence | recombinant barcode read abundance (log10) |
| --- | --- |
| GGGCCTACTTGGGTTCTAACCTGTTGCTA (site GGGCCTACTAA) | 0.0406 |
| CTACTAACTTGGGTTCTAACCTGTTGCGT (site CTACTAACTAC) | 1.07 |
| GGTCAAACTTGGGTTCTAACCTGTTGCCT (site GGTCCAACTAG) | 0.0951 |
| CAGGCGACTTGGGTTCTAACCTGTTGCCT (site CAGGCGTCTAG) | 0.394 |
| TCACATGCTTGGGTTCTAACCTGTTGCCT (site TCACATGCTAG) | 1.28 |
| TATGTACCTTGGGTTCTAACCTGTTGCCT (site TATGTACCTAG) | 1.46 |
| ACGATTCCTTGGGTTCTAACCTGTTGCTT (site ACGACTCCTAA) | 0.142 |
| AAGATTCCTTGGGTTCTAACCTGTTGCCT (site AGGATTCCTAG) | 0.111 |
| TTCCACACTTGGGTTCTAACCTGTTGCGG (site TTCCACACTCC) | 1.04 |
| TCCAACCCTTGGGTTCTAACCTGTTGCTT (site TCCAACCCTAA) | 0.391 |
| GTTCCAGCTTGGGTTCTAACCTGTTGCCT (site GTTCCAGCTAG) | 0.792 |
| CAATGCTCTTGGGTTCTAACCTGTTGCCT (site CAATGCTCTAG) | 1.84 |
| TCCAACCCTTGGGTTCTAACCTGTTGCAG (site TCCAAGCCTCT) | 0.0523 |
| AAGAAGCCTTGGGTTCTAACCTGTTGCCT (site TAGAAGCCTAG) | 0.337 |
| CTATGTGCTTGGGTTCTAACCTGTTGCGT (site CTATGTGCTAC) | 1.54 |
| TGTTAGCCTTGGGTTCTAACCTGTTGCCT (site TGTTAGCCTAG) | 0.0878 |
| CCGGTGCCTTGGGTTCTAACCTGTTGCCT (site CAGGTGCCTAG) | 0.0703 |
| GACTGAGCTTGGGTTCTAACCTGTTGCGT (site GACTGAGCTAC) | 2.58 |
| CTCCAGACTTGGGTTCTAACCTGTTGCAG (site CTGCAGACTCG) | 0.0775 |
| AAGATTCCTTGGGTTCTAACCTGTTGCCT (site ACGATTCCTAG) | 0.0379 |
| ATTGGTCCTTGGGTTCTAACCTGTTGCCT (site ATAGGTCCTAG) | 0.994 |
| TCCTAAGCTTGGGTTCTAACCTGTTGCTA (site TCCTAAGCTTA) | 0.161 |

| Sequence | recombinant barcode read abundance (log10) |
| --- | --- |
| TGGCAGTCTTGGGTTCTAACCTGTTGCCT (site TGGCAGACTAG) | 0.207 |
| TATGTAGCTTGGGTTCTAACCTGTTGCCA (site TATGTAGCTGG) | 0.201 |
| TCCAGCTCTTGGGTTCTAACCTGTTGCCT (site TCCAGCTCTAG) | 0.631 |
| GACATCGCTTGGGTTCTAACCTGTTGCCT (site GACATCACTAG) | 0.0851 |
| TATGTACCTTGGGTTCTAACCTGTTGCCT (site AATGTACCTAG) | 0.052 |
| TAGGATTCTTGGGTTCTAACCTGTTGCCT (site TAATATTCTAG) | 0.0335 |
| TAGGCTGCTTGGGTTCTAACCTGTTGCCT (site TAGACTGCTAG) | 0.359 |
| AACCAGTCTTGGGTTCTAACCTGTTGCCG (site ACCCAGTCTTG) | 0.033 |
| GCTCCGTCTTGGGTTCTAACCTGTTGCTT (site ACTCCGTCTTA) | 0.047 |
| GTTGCCACTTGGGTTCTAACCTGTTGCCT (site GTTGCCACTAG) | 0.411 |
| CTAAGTTCTTGGGTTCTAACCTGTTGCGT (site CTACGTACTAC) | 0.0986 |
| TAAAAGACTTGGGTTCTAACCTGTTGCCT (site TAAAAGCCTAG) | 0.0498 |
| AGTACGTCTTGGGTTCTAACCTGTTGCTT (site AGTACGTCTAA) | 0.201 |
| GCCCTTGCTTGGGTTCTAACCTGTTGCCT (site GCCCTTGCTAG) | 1.79 |
| CTGATCCCTTGGGTTCTAACCTGTTGCCT (site CAGATCCCTAG) | 0.629 |
| ACGAGTACTTGGGTTCTAACCTGTTGCGG (site ACGAGTACTCA) | 0.392 |
| CAGGTGACTTGGGTTCTAACCTGTTGCGG (site GGATATCCTAA) | 0.0229 |
| GTCTAGGCTTGGGTTCTAACCTGTTGCTG (site GCCGAGGCTCA) | 0.242 |
| GTGCTTACTTGGGTTCTAACCTGTTGCCT (site GTGCTTACTAG) | 0.538 |
| GCTAACCCTTGGGTTCTAACCTGTTGCGT (site GCTAACCCTAC) | 3.05 |
| CCACCGTCTTGGGTTCTAACCTGTTGCCT (site CCACTGTCTAG) | 0.175 |
| TCACAGTCTTGGGTTCTAACCTGTTGCCT (site TCACAGTCTAG) | 1.59 |

| Sequence | recombinant barcode read abundance (log10) |
| --- | --- |
| TTATGGTCTTGGGTTCTAACCTGTTGCTA (site TTATGGTCTTA) | 0.705 |
| GCTTCCACTTGGGTTCTAACCTGTTGCCT (site ACTTCCACTAG) | 0.074 |
| TCTACATCTTGGGTTCTAACCTGTTGCCT (site TCTACGTCTAG) | 0.0302 |
| TAGAATGCTTGGGTTCTAACCTGTTGCTT (site TAGAATGCTAA) | 0.285 |
| GAGTCTACTTGGGTTCTAACCTGTTGCAG (site GAGTCTACTCT) | 0.494 |
| CTTGAGACTTGGGTTCTAACCTGTTGCCT (site CTTGAGACTAG) | 2.02 |
| CTGCACTCTTGGGTTCTAACCTGTTGCCA (site CTGCACTCTTG) | 0.842 |
| CTGAAGCCTTGGGTTCTAACCTGTTGCCT (site CTGAAGCCTAG) | 1.74 |
| CCGGTATCTTGGGTTCTAACCTGTTGCCT (site CCGATATCTAG) | 0.0308 |
| GAAGTACCTTGGGTTCTAACCTGTTGCCT (site CAAGTACCTAG) | 0.275 |
| CTTTGATCTTGGGTTCTAACCTGTTGCGT (site CTTTGATCTAC) | 1.29 |
| CTGATGTCTTGGGTTCTAACCTGTTGCCA (site CTGGTGTCTTG) | 0.388 |
| GGATATCCTTGGGTTCTAACCTGTTGCCT (site GGATATCCTAG) | 0.645 |
| TTAACTACTTGGGTTCTAACCTGTTGCTC (site TTAACTACTAA) | 0.0118 |
| ACAATAGCTTGGGTTCTAACCTGTTGCCT (site ACAATAGCTAG) | 1.64 |
| CTACTATCTTGGGTTCTAACCTGTTGCGT (site TCGAGTGCTCT) | 0.143 |
| AAGGCCTCTTGGGTTCTAACCTGTTGCTT (site AAGTCCTCTAA) | 0.058 |
| TAGCATGCTTGGGTTCTAACCTGTTGCAG (site TAGCATGCTGT) | 0.0603 |
| TCCTAAGCTTGGGTTCTAACCTGTTGCGG (site TGCTAAGCTCA) | 0.276 |
| ACGACTACTTGGGTTCTAACCTGTTGCCT (site ACGACTTCTAG) | 0.048 |
